13 compounds from patent EP3381907A1, “SYMMETRICAL 2-AMINOPHENYL-BENZAZOLYL-5-ACETATE COMPOUNDS AND THEIR USE AS ANTI-HEPARANASE” (Leadiant Biosciences SA, priority 2017, dated 2018) can be followed below.

As a reminder, the IC50 is the concentration at which inhibition is half-maximal. The low end stands for inhibition by little substance, the high end for a need for much substance.

For one assay, the target named is T1, heparanase (Homo sapiens, UniProt Q9Y251).
T1 sequence (Q9Y251 158-543 limits assumed): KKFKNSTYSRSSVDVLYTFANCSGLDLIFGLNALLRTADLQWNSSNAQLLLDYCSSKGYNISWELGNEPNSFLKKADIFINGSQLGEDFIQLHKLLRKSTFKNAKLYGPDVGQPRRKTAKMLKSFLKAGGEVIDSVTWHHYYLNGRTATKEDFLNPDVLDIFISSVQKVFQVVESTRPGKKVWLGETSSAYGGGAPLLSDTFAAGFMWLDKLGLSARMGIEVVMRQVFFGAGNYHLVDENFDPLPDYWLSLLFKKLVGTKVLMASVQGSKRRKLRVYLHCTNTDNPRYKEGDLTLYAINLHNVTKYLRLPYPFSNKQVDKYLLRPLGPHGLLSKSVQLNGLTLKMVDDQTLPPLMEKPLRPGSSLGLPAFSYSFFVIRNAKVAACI
T1 sequence (Q9Y251 36-109 limits assumed): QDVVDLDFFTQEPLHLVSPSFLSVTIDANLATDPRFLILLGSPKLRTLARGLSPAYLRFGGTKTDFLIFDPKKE
Put plainly: AGA*IA assay: colorimetric fondaparinux cleavage assay for heparanase inhibition (WST-1). The class given is biochemical. The note with it: 2.5 nM heparanase, 100 µM fondaparinux, pH 5.0, 3 h at 37°C; class symbols. How it is done: All compounds were tested in a simple, accurate and robust microplate assay based on the cleavage of the synthetic heparin fragment, the pentasaccharide Fondaparinux (AGA*IA). This assay was originally developed by Hammond and coworkers [Hammond E, Li CP, Ferro V. Development of a colorimetric assay for heparanase activity suitable for kinetic analysis and inhibitor screening. Anal. Biochem. 396(1), 112-116 (2010)], where Fondaparinux corresponds to the methyl glycoside of the antithrombin III (ATIII)-activating pentasaccharide sequence of heparin. Fondaparinux is cleaved by heparanase to generate a reducing disaccharide, which can be quantitatively measured via a colorimetric or a fluorescence assay, the last by the fluorescent sensor polymer-H [Schiemann S, Lühn S, Alban S. Development of both colorimetric and fluorescence heparinase activity assays using fondaparinux as substrate. Anal. Biochem. 427(1), 82-89 (2012)].
The assay measures the appearance of the disaccharide product of heparanase-catalyzed fondaparinux cleavage colorimetrically using the tetrazolium salt WST-1. Assay was essentially performed as described with minor modifications. Briefly, NUNC ELISA 96-well plates were pre-treated with a solution of 4% BSA (bovin serum albumin) in phosphate-buffered saline containing 0.05% Tween 20 (PBST), for 2 h at 37°C, then washed three times with PBST, dried by tapping on paper towel and stored at -20°C. Before use, once again, the plates were washed with PBST.
Assay was carried out with 100 µl/well of assay solution containing 40 mM sodium acetate buffer (pH 5.0), 100 µM fondaparinux, 2.5 nM heparanase and serial dilutions of test compounds (tested in triplicate). Plates were sealed with adhesive tape and incubated, in the dark, for 3 h at 37°C, followed by development with 1.69 mM of the tetrazolium salt WST-1 solution in 0.1 M NaOH, for 1 h at 60°C. Then, the absorbance at 560 nm was measured through a microplate reader (Victor 3, Perkin Elmer).
Finally, the measurements were corrected by subtracting both the reagent background and the inner absorbance value of test compound.
For orientation: Formazan colour is commonly taken as a measure of viable cells.

Assay [1] concerns HT1080 (human fibrosarcoma). Put plainly: SRB Cell Cytotoxicity Assay, HT1080. As to conditions: HT-1080, HT1080, 72h treatment, read-out: Concentration (µM) of test compounds at which the cell growth is inhibited by 50 %. HT1080. It is filed as cell-based. An excerpt: (§1) SRB Cell Cytotoxicity Assay is an assay based upon the quantitative staining of cellular proteins by sulforhodamine B (SRB). This assay can be used for high-throughput drug screening (Vichai & Kirkitara, Nature Protocol. 2006, 1, 112). Sulforhodamine B is an anionic aminoxanthene dye that forms an electrostatic complex with the basic amino acid residues of proteins under moderately acid conditions, which provides a sensitive linear response.
(§2) To assess a putative antiproliferative activity of the selected compounds, HT1080 (human fibrosarcoma), U87MG (human glioblastoma astrocytoma) and U2OS (human osteosarcoma) cell lines were treated for 72h, in triplicate, with increasing concentrations of heparanase inhibitors. Inhibition of cell proliferation was then measured by the classical colorimetric SRB Cell Cytotoxicity assay. Absorbance was measured by spectrophotometer at a wavelength of 510 nm and cell proliferation was determined as percent with respect to control cells (cells treated with the vehicle alone). EC50 values were then determined by GraphPad Prism.

Assay [2] has as its system U87MG (human glioblastoma astrocytoma). Put plainly: SRB Cell Cytotoxicity Assay, U87MG. The class given is cell-based. As to conditions: U-87 MG, 72h treatment, read-out: Concentration (µM) of test compounds at which the cell growth is inhibited by 50 %. U87MG.
Source text: as §1, §2

In assay [3] the test system is U2OS (human osteosarcoma). The experiment in a line: SRB Cell Cytotoxicity Assay, U2OS. It is filed as cell-based. The note with it: 72h treatment, read-out: Concentration (µM) of test compounds at which the cell growth is inhibited by 50 %. U2OS.
Source text: as §1, §2

Regarding `CC(C)CCNC(=O)Cc1ccc2oc(-c3ccc(NC(=O)Nc4ccc(-c5nc6cc(CC(=O)NCCC(C)C)ccc6o5)cc4F)c(F)c3)nc2c1` [Compound 28, 2,2'-(((Carbonylbis(azanediyl))bis(3-fluoro-4,1-phenylene))bis(benzo[d]oxazole-2,5-diyl))bis(N-isopentylacetamide)], the IC50 at heparanase lay within 1 to 20 µM.
The same measure, in the same setting: next, `N=C(Nc1ccc(-c2nc3cc(CC(=O)O)ccc3o2)cc1)Nc1ccc(-c2nc3cc(CC(=O)O)ccc3o2)cc1` [Compound 40, 2,2'-((((Iminomethylene)bis(azanediyl))bis(4,1-phenylene))bis(benzo[d]oxazole-2,5-diyl))diacetic acid]: 1 to 20 µM.
On heparanase, `O=C(O)CNC(=O)Cc1ccc2oc(-c3ccc(NC(=S)Nc4ccc(-c5nc6cc(CC(=O)NCC(=O)O)ccc6o5)cc4F)c(F)c3)nc2c1` [Compound 38, 2,2'-((2,2'-(((Thiocarbonylbis(azanediyl))bis(3-fluoro-4,1-phenylene))bis(benzo[d]oxazole-2,5-diyl))bis(acetyl))bis(azanediyl))diacetic acid] came in with an IC50 of 0.05 to 0.49 µM. Further, the EC50 in assay [1], in assay [2] and in assay [3] was more than 10 µM throughout.
At heparanase, `O=C(Cc1ccc2[nH]c(-c3ccc(NC(=O)Nc4ccc(-c5nc6cc(CC(=O)N[C@@H](Cc7ccccc7)C(=O)O)ccc6[nH]5)cc4F)c(F)c3)nc2c1)N[C@@H](Cc1ccccc1)C(=O)O` [Compound 8, (2S,2'S)-2,2'-((2,2'-(((Carbonylbis(azanediyl))bis(3-fluoro-4,1-phenylene))bis(1H-benzo[d]imidazole-2,5-diyl))bis(acetyl))bis(azanediyl))bis(3-phenylpropanoic acid)] registered an IC50 of 0.5 to 0.99 µM.
At heparanase, `CC(C)C[C@H](NC(=O)Cc1ccc2oc(-c3ccc(NC(=O)Nc4ccc(-c5nc6cc(CC(=O)N[C@@H](CC(C)C)B(O)O)ccc6o5)cc4F)c(F)c3)nc2c1)B(O)O` [Compound 31, (1R,1'R)-(((2,2'-(((Carbonylbis(azanediyl))bis(3-fluoro-4,1-phenylene))bis(benzo[d]oxazole-2,5-diyl))bis(acetyl))bis(azanediyl))bis(3-methylbutane-1,1-diyl))diboronic acid] had an IC50 of 1 to 20 µM.
Still for that read-out and setting: in the case of `O=C(O)Cc1ccc2[nH]c(-c3ccc(NC(=S)Nc4ccc(-c5nc6cc(CC(=O)O)ccc6[nH]5)cc4F)c(F)c3)nc2c1` [Compound 12, 2,2'-(((Thiocarbonylbis(azanediyl))bis(3-fluoro-4,1-phenylene))bis(1H-benzo[d]imidazole-2,5-diyl))diacetic acid] it was 0.5 to 0.99 µM.
Compound `O=C(O)Cc1ccc2oc(-c3ccc(NC(=O)Nc4ccc(-c5nc6cc(CC(=O)O)ccc6o5)cc4)cc3)nc2c1` [Compound 19, 2,2'-(((Carbonylbis(azanediyl))bis(4,1-phenylene))bis(benzo[d]oxazole-2,5-diyl))diacetic acid] registered an IC50 against heparanase of 1 to 20 µM. Moreover, the EC50 in assay [1], in assay [2] and in assay [3] was more than 10 µM in each case.
For `O=C(O)CNC(=O)Cc1ccc2[nH]c(-c3ccc(NC(=O)Nc4ccc(-c5nc6cc(CC(=O)NCC(=O)O)ccc6[nH]5)cc4F)c(F)c3)nc2c1` [Compound 7, 2,2'-((2,2'-(((carbonylbis(azanediyl))bis(3-fluoro-4,1-phenylene))bis(1H-benzo[d]imidazole-2,5-diyl))bis(acetyl))bis(azanediyl))diacetic acid], the IC50 against heparanase lay within 1 to 20 µM.
Take `O=C(Cc1ccc2[nH]c(-c3ccc(NC(=O)Nc4ccc(-c5nc6cc(CC(=O)NCB(O)O)ccc6[nH]5)cc4F)c(F)c3)nc2c1)NCB(O)O` [Compound 9, (((2,2'-(((Carbonylbis(azanediyl))bis(3-fluoro-4,1-phenylene))bis(1H-benzo[d]imidazole-2,5-diyl))bis(acetyl))bis(azanediyl))bis(methylene))diboronic acid]: the IC50 against heparanase was 1 to 20 µM.
The same measure, in the same setting: in the case of `O=C(O)Cc1ccc2oc(-c3ccc(NC(=S)Nc4ccc(-c5nc6cc(CC(=O)O)ccc6o5)cc4F)c(F)c3)nc2c1` [Compound 36, 2,2'-(((Thiocarbonylbis(azanediyl))bis(3-fluoro-4,1-phenylene))bis(benzo[d]oxazole-2,5-diyl))diacetic acid] it was 1 to 20 µM; in that of `O=C(O)Cc1ccc2oc(-c3ccc(NC(=S)Nc4ccc(-c5nc6cc(CC(=O)O)ccc6o5)cc4)cc3)nc2c1` [Compound 33, 2,2'-(((thiocarbonylbis(azanediyl))bis(4,1-phenylene))bis(benzo[d]oxazole-2,5-diyl))diacetic acid], 1 to 20 µM.
As for `O=C(Cc1ccc2oc(-c3ccc(NC(=O)Nc4ccc(-c5nc6cc(CC(=O)N[C@@H](Cc7ccccc7)C(=O)O)ccc6o5)cc4F)c(F)c3)nc2c1)N[C@@H](Cc1ccccc1)C(=O)O` [Compound 26, (2S,2'S)-2,2'-((2,2'-(((Carbonylbis(azanediyl))bis(3-fluoro-4,1-phenylene))bis(benzo[d]oxazole-2,5-diyl))bis(acetyl))bis(azanediyl))bis(3-phenylpropanoic acid)], the IC50 against heparanase fell in the range of 0.5 to 0.99 µM. Also, the EC50 in assay [1], in assay [2] and in assay [3] was more than 10 µM throughout.
For the compound `O=C(O)Cc1ccc2[nH]c(-c3ccc(NC(=O)Nc4ccc(-c5nc6cc(CC(=O)O)ccc6[nH]5)cc4F)c(F)c3)nc2c1` [Compound 4, 2,2'-(((Carbonylbis(azanediyl))bis(3-fluoro-4,1-phenylene))bis(1H-benzo[d]imidazole-2,5-diyl))diacetic acid], the IC50 against heparanase lay in the range of 0.5 to 0.99 µM.
